US12170135B2, “Systems and methods for evaluating query perturbations” (Recursion Pharmaceuticals, Inc., priority 2019, dated 2024)
“Also recorded” adds a separate entry of the source.

Key:
[1] = system: NF2 deficiency in primary human cells; assay: Primary drug screens on NF2 loss-of-function model; assay type: cell-based; conditions: for rescue of NF2 loss-of-function phenotype: primary screen
Excerpt: To identify novel and effective treatments for NF2, a loss-of-function model of the disease in a primary human cells and screened for molecules that rescue the disease-specific phenotype. […] These figures illustrate results from a series of primary drug screens to identify drug candidates for NF2 from a library of approximately 2000 small molecules. Scores for control perturbations (largely clustered in region 1102), test perturbations (largely clustered in region 1104), and query perturbations (largely clustered in region 1106), are shown in the plots. A small number of hits were algorithmically selected based on their effects in the assay and used for further screening.

[2] = system: SMN protein; conditions: cell-based assays and patients; cited from earlier work
[3] = system: SMA patients; conditions: clinical trials; cited from earlier work
[4] = system: ATM deficiency in A549 cells
Excerpt: (§1) Hits were algorithmically selected based on effect and screened with a higher replicate count in a tertiary screen. […] The length of the wider green bars, such as bar 910, represents changes in individual features of increasing or decreasing magnitude that best represent the ATM disease signature. The impact of each drug on individual features is overlaid in a second, narrower red shaded bar, such as bar 911. […] The order of the features was randomized between individual plots, and individual feature labels are omitted. […] Western blots probed for ATM and phosphorylated Chk2. […] The lower plots represent quantification of phosphorylated Chk2 from the Western Blot, n=3. H=Healthy; *denotes p<0.05, two-sided paired ratio t-test.
(§2) Small molecule compounds were then tested on the A-T disease model using the screening methods described herein.

[5] = system: patients with NF2; conditions: Phase 2 study; cited from earlier work
[6] = system: Chk2 phosphorylation in primary fibroblasts derived from a patient with A-T; assay: Western blot for phosphorylated Chk2 in primary fibroblasts from a patient with A-T; assay type: cell-based, human; conditions: H2O2
[7] = system: ATM deficiency in A549 cells; assay: Cell Painting phenotypic screen on the A-T disease model (on-target/off-target scores); conditions: ATM disease signature, FIG. 9B
Excerpt: as §1, §2

[8] = system: Chk2 phosphorylation in ATM knockdown A549 cells; assay: Western blot for phosphorylated Chk2 in siRNA transfected A549 cells treated with H2O2; assay type: cell-based; conditions: H2O2 treatment
Method: Glucocorticoids are identified by the dashed red polygon 901. […] Western blots probed for ATM and phosphorylated Chk2.
To further validate these compounds, disease-specific studies were performed. In response to DNA damage, ATM stimulates phosphorylation of a host of target proteins, including the checkpoint kinase Chk2. As expected, it was observed that siRNA-mediated knockdown of ATM mRNA in the A549 model cell-line suppressed phosphorylation of Chk2 after H2O2 treatment. Moreover, most glucocorticoids tested restored Chk2 phosphorylation to nearly 50% of control levels, with betamethasone and dexamethasone showing the least rescue (FIG. 9C).

For `CNC(=O)c1cccc(-c2ccc3c(N4CCOC[C@@H]4C)nc(N4CCOC[C@@H]4C)nc3n2)c1` [AZD2014], the “side-effect profile in NF2 screen” value [1] was “elevated side-effect profile compared to another highly selective mTOR inhibitor” and the “rescue of NF2 loss-of-function phenotype” value [1] was “strong rescue”.
For `CCN(CC)CCNC(=O)c1c(C)[nH]c(/C=C2\C(=O)Nc3ccc(F)cc32)c1C` [Sunitinib, sunitinib], the “side-effect profile in NF2 screen” value [1] was “minimal increase in side-effect profile”.
In the case of `CCCC(CCC)C(=O)O` [Valproic acid], the SMN protein level [2] is given as “increases full length SMN protein” and the “clinical improvement in SMA” value [3] is given as “modest clinical improvement”.
In the case of `C[C@H]1C[C@H]2[C@@H]3CCC4=CC(=O)C=C[C@]4(C)[C@@]3(F)[C@@H](O)C[C@]2(C)[C@@]1(O)C(=O)CO` [betamethasone], the “side effect profile (off-target score) in the screen” value [4] is reported as “greater side effects”.
For `CO[C@H]1C[C@@H]2CC[C@@H](C)[C@@](O)(O2)C(=O)C(=O)N2CCCC[C@H]2C(=O)O[C@H]([C@H](C)C[C@@H]2CC[C@@H](OCCO)[C@H](OC)C2)CC(=O)[C@H](C)/C=C(\C)[C@@H](O)[C@@H](OC)C(=O)[C@H](C)C[C@H](C)/C=C/C=C/C=C/1C` [everolimus], the “rescue of NF2 loss-of-function phenotype” value [1] is given as “minimal efficacy” and the “clinical efficacy in NF2 / meningioma” value [5] is given as “failed to demonstrate efficacy”.
In the case of `CS(=O)(=O)CCNCc1ccc(-c2ccc3ncnc(Nc4ccc(OCc5cccc(F)c5)c(Cl)c4)c3c2)o1` [lapatinib], the “clinical efficacy in NF2 / meningioma” value [5] is given as “antitumor activity in a subset of patients” and the “tolerability in patients with NF2” value [5] is given as “well tolerated”.
For `C[C@@H]1C[C@H]2[C@@H]3CCC4=CC(=O)C=C[C@]4(C)[C@@]3(Cl)[C@@H](O)C[C@]2(C)[C@@]1(O)C(=O)CCl` [mometasone], the “rescue of Chk2 phosphorylation in primary patient-derived cells” value [6] was “dose-dependent rescue of Chk2 phosphorylation; also recorded: dose-dependent increase in Chk2 phosphorylation”, the “impact on the twenty most prominent phenotypic disease features” value [7] was “rescues a subset of features” and the “rescue of Chk2 phosphorylation associated with ATM deficiency” value [8] was “better rescue ATM deficiency”. For the same molecule, the “rescue of Chk2 phosphorylation associated with ATM deficiency” value ([8]; listed as Mometasone) was “superior P-Chk2 rescue”.
